Experimental data taken from US20160074353A1, “USE OF PETROSELINIC ACID TO FIGHT AGAINST AESTHETIC DISORDERS OF THE BODY FIGURE” (L'OREAL, priority 2013, published 2016).

Tested on: lipoxin A4
Experiment: Synthesis/release of lipoxin A4 by stimulated (PMA/A23187 + DHA/EPA) mononuclear blood cells, LC-MS quantification, % modulation relative to the control
Type: cell-based
Settings: % modulation vs stimulated control
Experimental: Mononuclear blood cells are cultured under 5% CO2 and at 37° C. in a serum-free medium for macrophages (SFM Macrophage; Invitrogen 12065074) for 24 hours.
After this step, the medium is replaced with the same fresh test medium also containing the active agents at the various doses for 30 minutes in the presence of the various products to be evaluated, as indicated in the table of results below. The inflammatory response was then triggered in the presence of phorbol myristate (0.05 μM) and calcium ionophore (1 μM) and of a lipid substrate mixture composed of docosahexaenoic acid (DHA—1 μg/mL) and eicosapentaenoic acid (EPA—1 μg/mL).
The supernatants were then collected after 2 hours of stimulation and frozen at −80° C. before preparation for analysis by mass spectrometry.
Experimental triplicates (three wells) were prepared per experimental condition. Into each culture plate was placed a control corresponding to cells stimulated with the PMA/A23187 mixture and/or with addition of the equimolar mixture of fatty acids.
The thawed supernatants were concentrated by solid-phase extraction (SPE) and taken up in methanol before spectrometric analysis. The analytical method used consists in separating the various analytes by high-pressure liquid chromatography as a function of their retention time and in quantifying them by mass spectrometry. […]

Row | Molecule | Level of lipoxin A4 production (taurine 3.1 mg/ml) | Level of lipoxin A4 production (zinc gluconate 0.005 mg/ml) [%]
1 | NCCS(=O)(=O)O [Taurine] | +38% | –
2 | Zinc gluconate | – | −5
